Measured values as given in patent US20070093520A1, “Method of treatment of diarrhea-predominant irritable bowel syndrome in a subject” (priority 2005, published 2007).

System: diarrhea-predominant IBS subjects
Assay type: in vivo, human
Conditions: Cilansetron 2 mg, N=1454
Protocol: The study was performed in approximately 150 study centers. Approximately 1600 eligible subjects were to be given cilansetron 2 mg TID. At Visit 1, pre-treatment assessments were conducted. […] Subjects were to return to the study site one month later for Visit 3 (Day 31) for their first interim assessment. […] All subjects who discontinued from the study were to have the same post-study assessments required at Visit 7 performed at their early termination visit. […]
Stool specimens were analyzed at every visit for occult blood. An independent GERB had been established to provide advice on GI AEs during the course of the study.
Adverse events were assessed at Baseline, at each clinic visit, and at the end of the study (Month 12 or the early termination visit). All AEs, which occurred during the study were followed up in accordance with good medical practice until resolved or judged no longer clinically significant, or if a condition was chronic, until fully characterized. Adverse events could occur in the specified follow-up period and, regardless of the interval since the last administration of the study medication, were treated in the same manner as an AE which occurred during the treatment with study medication. Each AE was evaluated for duration, severity, seriousness, and causal relationship to the investigational drug. The action taken and the outcome were also recorded.
Specifically, subjects who were lost to follow-up and had no post-Baseline contact with the site were excluded from the Safety population. The subjects who discontinued from the study due to lost to follow-up were identified based on the information collected on the study termination CRF page.
After the pretreatment assessment at Visit 1 (Days […] to −3), subjects were to return to the study site for a Baseline assessment and start the treatment at Visit 2 (Day 1).
For the by time-interval analyses of disposition, prevalence of AEs, and of markedly abnormal and predefined changes in laboratory values, vital signs, and ECGs, the following interval windows were used:
Adverse events that were already present prior to the first dose of cilansetron study medication but increased in severity afterwards were considered as treatment-emergent.
The 5% cutoff point was based on the incidence within higher level terms.
Subjects were counted at most once for each primary system organ class and preferred term. Serious AEs that resolved prior to receiving study medication or occurred more than 30 days after the last dose of study medication were not included in the incidence tables. A listing of all SAEs is presented; SAEs with onset prior to receiving study medication or more than 30 days after discontinuation of study medication were flagged. The listing presents lower level term and preferred term of the SAE, severity, action taken, outcome, and relationship of the SAE, start and stop date of the SAE, study day of onset of the SAE, age, race, and sex.

Cc1nccn1C[C@H]1CCc2c(c3cccc4c3n2CCC4)C1=O [cilansetron, (R)-(−)-4,5,6,8,9,10-hexahydro-10-[(2-methyl-1H-imidazol-1-yl)methyl]-11H-pyrido-[3,2,1-jk]-carbazol-11-one] was tested, and the “TEAE incidence: Carbohydrate Tolerance Analyses (Incl Diabetes)” value was 2 (<1%) n (%), the “TEAE incidence: Cardiac Enzymes Increased” value was 1 (<1%) n (%) and the “TEAE incidence: Carotid Artery Atheroma” value was 1 (<1%) n (%). For the same molecule, the “TEAE incidence: Carotid Artery Stenosis” value was 1 (<1%) n (%), the “TEAE incidence: Carpal Tunnel Syndrome” value was 2 (<1%) n (%) and the “TEAE incidence: Cellulitis” value was 1 (<1%) n (%). For the same molecule, the “TEAE incidence: Central Nervous System Haemorrhages and Cerebrovascular Accidents” value was 1 (<1%) n (%), the “TEAE incidence: Central Nervous system Vascular Disorders NEC” value was 2 (<1%) n (%) and the “TEAE incidence: Cerebral Infarction” value was 1 (<1%) n (%). For the same molecule, the “TEAE incidence: Cervical Root Pain” value was 1 (<1%) n (%), the “TEAE incidence: Cervical Spinal Cord and Nerve Root Disorders” value was 1 (<1%) n (%) and the “TEAE incidence: Cholesterol Analyses” value was 25 (2%) n (%). The “TEAE incidence: Colitis Ischaemic” value was 2 (<1%) n (%), the “TEAE incidence: Colitis NOS” value was 1 (<1%) n (%) and the “TEAE incidence: Colonic Polyp” value was 2 (<1%) n (%). For the same molecule, the “TEAE incidence: Cystitis Acute NOS” value was 5 (<1%) n (%), the “TEAE incidence: Cystitis NOS” value was 4 (<1%) n (%) and the “TEAE incidence: Defaecation Urgency” value was 1 (<1%) n (%). The “TEAE incidence: Dental Discomfort” value was 1 (<1%) n (%), the “TEAE incidence: Dental Pain and Sensation Disorders” value was 13 (<1%) n (%) and the “TEAE incidence: Diaphragmatic Hernias” value was 2 (<1%) n (%). The “TEAE incidence: Diarrhoea Aggravated” value was 8 (<1%) n (%), the “TEAE incidence: Diarrhoea Haemorrhagic” value was 1 (<1%) n (%) and the “TEAE incidence: Diarrhoea NOS” value was 73 (5%) n (%). The “TEAE incidence: Disturbances in Consciousness NEC” value was 5 (<1%) n (%), the “TEAE incidence: Dizziness” value was 28 (2%) n (%) and the “TEAE incidence: Dry Mouth” value was 3 (<1%) n (%). The “TEAE incidence: Duodenal Polyp” value was 1 (<1%) n (%), the “TEAE incidence: Duodenal Ulcer” value was 1 (<1%) n (%) and the “TEAE incidence: Duodenal Ulcers and Perforation” value was 1 (<1%) n (%). For the same molecule, the “TEAE incidence: Duodenitis” value was 2 (<1%) n (%), the “TEAE incidence: Dysgeusia” value was 2 (<1%) n (%) and the “TEAE incidence: Dyspepsia” value was 50 (3%) n (%). For the same molecule, the “TEAE incidence: Dyspepsia Aggravated” value was 4 (<1%) n (%), the “TEAE incidence: Dyspeptic Signs and Symptoms” value was 59 (4%) n (%) and the “TEAE incidence: Dysphagia” value was 1 (<1%) n (%). For the same molecule, the “TEAE incidence: Dystonias” value was 1 (<1%) n (%), the “TEAE incidence: ECG Investigations” value was 25 (2%) n (%) and the “TEAE incidence: Electrocardiogram Abnormal NOS” value was 2 (<1%) n (%). The “TEAE incidence: Electrocardiogram Change NOS” value was 1 (<1%) n (%), the “TEAE incidence: Electrocardiogram Pr Interval Prolonged” value was 1 (<1%) n (%) and the “TEAE incidence: Electrocardiogram Pr Shortened” value was 1 (<1%) n (%). For the same molecule, the “TEAE incidence: Electrocardiogram Q Waves Normal” value was 1 (<1%) n (%), the “TEAE incidence: Electrocardiogram Qt Shortened” value was 1 (<1%) n (%) and the “TEAE incidence: Electrocardiogram St Segment Depression” value was 3 (<1%) n (%). The “TEAE incidence: Electrocardiogram St Segment Elevation” value was 3 (<1%) n (%), the “TEAE incidence: Electrocardiogram T Wave Abnormal” value was 4 (<1%) n (%) and the “TEAE incidence: Electrocardiogram T Wave Amplitude Decreased” value was 1 (<1%) n (%). For the same molecule, the “TEAE incidence: Electrocardiogram T Wave Inversion” value was 7 (<1%) n (%), the “TEAE incidence: Eosinophil Count Increased” value was 18 (1%) n (%) and the “TEAE incidence: Eosinophil Percentage Increased” value was 2 (<1%) n (%). The “TEAE incidence: Epigastric Discomfort” value was 2 (<1%) n (%), the “TEAE incidence: Epigastric Hernia” value was 1 (<1%) n (%) and the “TEAE incidence: Eructation” value was 5 (<1%) n (%). For the same molecule, the “TEAE incidence: Facial Cranial Nerve Disorders” value was 1 (<1%) n (%), the “TEAE incidence: Facial Palsy” value was 1 (<1%) n (%) and the “TEAE incidence: Faecal Abnormality NOS” value was 3 (<1%) n (%). The “TEAE incidence: Faecal Occult Blood Positive” value was 9 (<1%) n (%), the “TEAE incidence: Faeces Abnormal” value was 51 (4%) n (%) and the “TEAE incidence: Faeces Discoloured” value was 2 (<1%) n (%). The “TEAE incidence: Faeces Hard” value was 32 (2%) n (%), the “TEAE incidence: Food Poisoning NOS” value was 1 (<1%) n (%) and the “TEAE incidence: Frequent Bowel Movements” value was 5 (<1%) n (%). The “TEAE incidence: Gamma-Glutamyltransferase Decreased” value was 1 (<1%) n (%), the “TEAE incidence: Gamma-Glutamyltransferase Increased” value was 19 (1%) n (%) and the “TEAE incidence: Gastric Erosions” value was 2 (<1%) n (%). For the same molecule, the “TEAE incidence: Gastric Polyps” value was 1 (<1%) n (%), the “TEAE incidence: Gastric Ulcer” value was 2 (<1%) n (%) and the “TEAE incidence: Gastric Ulcers and Perforation” value was 4 (<1%) n (%). For the same molecule, the “TEAE incidence: Gastritis Aggravated” value was 4 (<1%) n (%), the “TEAE incidence: Gastritis NOS” value was 13 (<1%) n (%) and the “TEAE incidence: Gastroenteritis NOS” value was 24 (2%) n (%). The “TEAE incidence: Gastrointestinal Atonic and Hypomotility Disorders NEC” value was 228 (16%) n (%), the “TEAE incidence: Gastrointestinal Disorders” value was 587 (40%) n (%) and the “TEAE incidence: Gastrointestinal Disorders NEC” value was 2 (<1%) n (%). The “TEAE incidence: Gastrointestinal Dyskinetic Disorders” value was 1 (<1%) n (%), the “TEAE incidence: Gastrointestinal Histopathology Procedures” value was 22 (2%) n (%) and the “TEAE incidence: Gastrointestinal Inflammatory Disorders NEC” value was 3 (<1%) n (%). The “TEAE incidence: Gastrointestinal Motility Disorder NOS” value was 1 (<1%) n (%), the “TEAE incidence: Gastrointestinal Mucosal Dystrophies and Secretion Disorders” value was 2 (<1%) n (%) and the “TEAE incidence: Gastrointestinal Neoplasms NEC” value was 2 (<1%) n (%). The “TEAE incidence: Gastrointestinal Pain NOS” value was 2 (<1%) n (%), the “TEAE incidence: Gastrointestinal Signs and Symptoms NEC” value was 12 (<1%) n (%) and the “TEAE incidence: Gastrointestinal Spastic and Hypermotility Disorders” value was 21 (1%) n (%). The “TEAE incidence: Gastrointestinal and Abdominal Pains (Excl Oral and Throat)” value was 223 (15%) n (%), the “TEAE incidence: Gingival Disorders NEC” value was 1 (<1%) n (%) and the “TEAE incidence: Gingivitis” value was 1 (<1%) n (%). For the same molecule, the “TEAE incidence: Glossitis” value was 1 (<1%) n (%), the “TEAE incidence: Glucose Urine Present” value was 2 (<1%) n (%) and the “TEAE incidence: Haematemesis” value was 1 (<1%) n (%). The “TEAE incidence: Haematological Analyses NEC” value was 1 (<1%) n (%), the “TEAE incidence: Haemoglobin Decreased” value was 1 (<1%) n (%) and the “TEAE incidence: Haemorrhoidal Haemorrhage” value was 9 (<1%) n (%). For the same molecule, the “TEAE incidence: Haemorrhoids” value was 30 (2%) n (%), the “TEAE incidence: Haemorrhoids Aggravated” value was 1 (<1%) n (%) and the “TEAE incidence: Haemorrhoids and Gastrointestinal Varices (Excl Oesophageal)” value was 38 (3%) n (%). The “TEAE incidence: Halitosis” value was 2 (<1%) n (%), the “TEAE incidence: Headache NOS Aggravated” value was 2 (<1%) n (%) and the “TEAE incidence: Headaches NEC” value was 104 (7%) n (%). For the same molecule, the “TEAE incidence: Herpes Simplex” value was 3 (<1%) n (%), the “TEAE incidence: Herpes Zoster” value was 4 (<1%) n (%) and the “TEAE incidence: Hiatus Hernia” value was 2 (<1%) n (%). The “TEAE incidence: Hiccups” value was 1 (<1%) n (%), the “TEAE incidence: Hyperacidity” value was 4 (<1%) n (%) and the “TEAE incidence: Hypersomnia” value was 1 (<1%) n (%). The “TEAE incidence: Hypoaesthesia” value was 2 (<1%) n (%), the “TEAE incidence: Hypoaesthesia Oral” value was 1 (<1%) n (%) and the “TEAE incidence: Ileus Paralytic” value was 1 (<1%) n (%). For the same molecule, the “TEAE incidence: Influenza” value was 51 (4%) n (%), the “TEAE incidence: Inguinal Hernia NOS” value was 2 (<1%) n (%) and the “TEAE incidence: Inguinal Hernias” value was 2 (<1%) n (%). For the same molecule, the “TEAE incidence: Intercostal Neuralgia” value was 1 (<1%) n (%) and the “TEAE incidence: Intertrigo Candida” value was 1 (<1%) n (%).
